Species: Rattus norvegicus
Assay: Open TG-GATES - Regimen: Daily Repeat
Type: toxicity, organism-based, Sprague-Dawley
Set-up: regimen Daily Repeat, gender Male, age 6 weeks
Settings: in vivo, iv, 0 mg/kg, route intravenous injection, dose level Control; for KIDNEY_L / KIDNEY_R / KIDNEY_TOTAL: tissue Kidney
[1] = 72 h, tissue Plasma, time 3 day
[2] = […], tissue Plasma, time 14 day
[3] = […], tissue Plasma, time 28 day

GENTAMICIN
TERMINAL_BW (72 h, time 3 day): 231.1 g
APTT (72 h, tissue Blood, time 3 day): 23.2 s
Bas (72 h, tissue Blood, time 3 day): 0%
Eos (72 h, tissue Blood, time 3 day): 1%
Fbg (72 h, tissue Blood, time 3 day): 286.6 mg/dL
Ht (72 h, tissue Blood, time 3 day): 37.6%
Lym (72 h, tissue Blood, time 3 day): 72.8%
MCH (72 h, tissue Blood, time 3 day): 21.1 pg
MCHC (72 h, tissue Blood, time 3 day): 34.9%
MCV (72 h, tissue Blood, time 3 day): 60.6 fL
Mono (72 h, tissue Blood, time 3 day): 3.2%
Neu (72 h, tissue Blood, time 3 day): 21.6%
PT (72 h, tissue Blood, time 3 day): 16.9 s
Plat (72 h, tissue Blood, time 3 day): 119.1 x10_4/uL
RBC (72 h, tissue Blood, time 3 day): 621 x10_4/ul
Ret (72 h, tissue Blood, time 3 day): 5.8%
WBC (72 h, tissue Blood, time 3 day): 105.4 x10_2/uL
KIDNEY_L (72 h, time 3 day): 1.1 g
KIDNEY_R (72 h, time 3 day): 1 g
KIDNEY_TOTAL (72 h, time 3 day): 2.1 g
ALP [1]: 1838 IU/L
ALT [1]: 41.8 IU/L
AST [1]: 70.2 IU/L
BUN [1]: 16.2 mg/dL
CRE [1]: 0.2 mg/dL
DBIL [1]: 0 mg/dL
IP [1]: 6.9 mg/dL
K [1]: 4.5 meq/L
LDH [1]: 157.2 IU/L
Na [1]: 139.6 meq/L
PL [1]: 147.8 mg/dL
RALB [1]: 3 g/dL
TBIL [1]: 0.006 mg/dL
TC [1]: 72.8 mg/dL
TG [1]: 107.6 mg/dL
TP [1]: 5.5 g/dL
gamma-GTP [1]: 1.6 IU/L
TERMINAL_BW ([…], time 7 day): 261.2 g
TERMINAL_BW ([…], time 14 day): 307.6 g
TERMINAL_BW ([…], time 28 day): 392.7 g
APTT ([…], tissue Blood, time 7 day): 22.1 s
Bas ([…], tissue Blood, time 7 day): 0%
Eos ([…], tissue Blood, time 7 day): 0.8%
Fbg ([…], tissue Blood, time 7 day): 273.2 mg/dL
Ht ([…], tissue Blood, time 7 day): 37.1%
Lym ([…], tissue Blood, time 7 day): 80%
MCH ([…], tissue Blood, time 7 day): 20.6 pg
MCV ([…], tissue Blood, time 7 day): 58.5 fL
Mono ([…], tissue Blood, time 7 day): 3%
Neu ([…], tissue Blood, time 7 day): 15.5%
PT ([…], tissue Blood, time 7 day): 16 s
Plat ([…], tissue Blood, time 7 day): 118.1 x10_4/uL
RBC ([…], tissue Blood, time 7 day): 636.2 x10_4/ul
Ret ([…], tissue Blood, time 7 day): 4.1%
WBC ([…], tissue Blood, time 7 day): 124.9 x10_2/uL
APTT ([…], tissue Blood, time 14 day): 23 s
Bas ([…], tissue Blood, time 14 day): 0%
Eos ([…], tissue Blood, time 14 day): 0.8%
Fbg ([…], tissue Blood, time 14 day): 267.8 mg/dL
Ht ([…], tissue Blood, time 14 day): 40.2%
Lym ([…], tissue Blood, time 14 day): 78%
MCH ([…], tissue Blood, time 14 day): 21 pg
MCHC ([…], tissue Blood, time 14 day): 35.7%
MCV ([…], tissue Blood, time 14 day): 58.8 fL
Mono ([…], tissue Blood, time 14 day): 2.6%
Neu ([…], tissue Blood, time 14 day): 17.6%
PT ([…], tissue Blood, time 14 day): 16.2 s
Plat ([…], tissue Blood, time 14 day): 123.5 x10_4/uL
RBC ([…], tissue Blood, time 14 day): 684.8 x10_4/ul
Ret ([…], tissue Blood, time 14 day): 4%
WBC ([…], tissue Blood, time 14 day): 103.9 x10_2/uL
APTT ([…], tissue Blood, time 28 day): 24.6 s
Bas ([…], tissue Blood, time 28 day): 0%
Eos ([…], tissue Blood, time 28 day): 1.2%
Fbg ([…], tissue Blood, time 28 day): 290.2 mg/dL
Hb ([…], tissue Blood, time 28 day): 15.4 g/dL
Ht ([…], tissue Blood, time 28 day): 43.3%
Lym ([…], tissue Blood, time 28 day): 83%
MCHC ([…], tissue Blood, time 28 day): 35.5%
MCV ([…], tissue Blood, time 28 day): 57.6 fL
Mono ([…], tissue Blood, time 28 day): 2%
Plat ([…], tissue Blood, time 28 day): 102.2 x10_4/uL
RBC ([…], tissue Blood, time 28 day): 752 x10_4/ul
Ret ([…], tissue Blood, time 28 day): 2.3%
WBC ([…], tissue Blood, time 28 day): 107.5 x10_2/uL
KIDNEY_L ([…], time 7 day): 1.1 g
KIDNEY_R ([…], time 7 day): 1.1 g
KIDNEY_TOTAL ([…], time 7 day): 2.2 g
KIDNEY_L ([…], time 14 day): 1.2 g
KIDNEY_R ([…], time 14 day): 1.2 g
KIDNEY_TOTAL ([…], time 14 day): 2.4 g
KIDNEY_L ([…], time 28 day): 1.4 g
KIDNEY_R ([…], time 28 day): 1.3 g
KIDNEY_TOTAL ([…], time 28 day): 2.7 g
LIVER ([…], tissue Liver, time 28 day): 15.2 g
ALP ([…], tissue Plasma, time 7 day): 1702.5 IU/L
ALT ([…], tissue Plasma, time 7 day): 40.5 IU/L
AST ([…], tissue Plasma, time 7 day): 72.2 IU/L
BUN ([…], tissue Plasma, time 7 day): 17 mg/dL
CRE ([…], tissue Plasma, time 7 day): 0.2 mg/dL
DBIL ([…], tissue Plasma, time 7 day): 0 mg/dL
GLC ([…], tissue Plasma, time 7 day): 214 mg/dL
IP ([…], tissue Plasma, time 7 day): 6.8 mg/dL
K ([…], tissue Plasma, time 7 day): 4.4 meq/L
LDH ([…], tissue Plasma, time 7 day): 207.2 IU/L
PL ([…], tissue Plasma, time 7 day): 135.2 mg/dL
RALB ([…], tissue Plasma, time 7 day): 2.9 g/dL
TBIL ([…], tissue Plasma, time 7 day): 0.005 mg/dL
TC ([…], tissue Plasma, time 7 day): 68.5 mg/dL
TG ([…], tissue Plasma, time 7 day): 94.5 mg/dL
TP ([…], tissue Plasma, time 7 day): 5.4 g/dL
gamma-GTP ([…], tissue Plasma, time 7 day): 1.5 IU/L
ALP [2]: 1249.2 IU/L
ALT [2]: 33.4 IU/L
AST [2]: 61.6 IU/L
CRE [2]: 0.2 mg/dL
DBIL [2]: 0 mg/dL
GLC [2]: 198.6 mg/dL
IP [2]: 7 mg/dL
K [2]: 4.7 meq/L
PL [2]: 140.8 mg/dL
RALB [2]: 3 g/dL
TBIL [2]: 0.002 mg/dL
TC [2]: 63.2 mg/dL
TG [2]: 154 mg/dL
TP [2]: 5.6 g/dL
gamma-GTP [2]: 2 IU/L
ALP [3]: 976 IU/L
ALT [3]: 34.8 IU/L
AST [3]: 58.8 IU/L
BUN [3]: 18.2 mg/dL
CRE [3]: 0.2 mg/dL
DBIL [3]: 0 mg/dL
GLC [3]: 190.8 mg/dL
IP [3]: 6.5 mg/dL
K [3]: 4.1 meq/L
LDH [3]: 115.4 IU/L
PL [3]: 135.6 mg/dL
RALB [3]: 3 g/dL
TBIL [3]: 0.004 mg/dL

— ChEMBL document CHEMBL3885861, “Open TG-GATES”
